Measurements taken from patent US8541585B2, “N-acyl cyclic amine derivative or pharmaceutically acceptable salt thereof” (Dainippon Sumitomo Pharma Co., Ltd., priority 2010, dated 2013).

Experiments:
human D2L receptor = human D2L receptor (Homo sapiens, UniProt P14416); assay: Dopamine D2L receptor binding assay ([3H]-spiperone); conditions: 10 nM test drug, [3H]-spiperone 0.5 nM, human D2L receptor-expressing CHO cell membrane; for inhibition at 0.01 µM: read-out: BINDING INHIBITION RATE (%) D2L 10 nM
human D2L receptor, sequence (P14416 whole entry): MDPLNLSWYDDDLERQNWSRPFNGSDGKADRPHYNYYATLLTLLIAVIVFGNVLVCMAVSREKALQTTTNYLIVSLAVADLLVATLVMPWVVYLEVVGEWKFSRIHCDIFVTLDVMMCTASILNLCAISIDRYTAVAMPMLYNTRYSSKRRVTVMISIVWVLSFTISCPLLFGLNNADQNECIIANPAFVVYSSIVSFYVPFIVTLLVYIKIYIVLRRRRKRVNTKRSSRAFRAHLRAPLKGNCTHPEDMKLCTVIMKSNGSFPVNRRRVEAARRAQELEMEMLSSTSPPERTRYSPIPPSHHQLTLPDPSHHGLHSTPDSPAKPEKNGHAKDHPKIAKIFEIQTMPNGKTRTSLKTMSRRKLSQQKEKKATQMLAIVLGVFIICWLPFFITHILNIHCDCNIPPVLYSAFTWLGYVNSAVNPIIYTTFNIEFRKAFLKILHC
Method: (1) Dopamine D2L Receptor Binding Assay
D2L receptor binding assay was performed in reference to a method described by Hirose et al. (Japan. J. Pharmacol., 53, 321-329, 1990). After a reaction in a total volume of 200 μL of 50 mM Tris-HCl (pH=7.6) buffer solution containing 50 μL of [^3H]-spiperone (final concentration 0.5 nM), 1 μL of test drug in DMSO, and 149 μL of human D2L receptor-expressing CHO cell membrane sample, human D2L receptor binding activity of [^3H]-spiperone was measured. The reaction solution let stand for 60 minutes at room temperature, and then it was quickly added on a glass fiber filter plate (Multiscreen FB, Millipore inc.) coated with 0.3% polyethyleneimine (PEI) and filtered under reduced pressure. The glass fiber filter was washed with 200 μL of ice-cooled 50 mM Tris-HCl (pH=7.6) twice, repeatedly filtered under reduced pressure, and then transferred to a vial containing 4 mL of Ecoscint A (National Diagnostics inc.). The residual radioactivity on the glass fiber filter was measured by a liquid scintillation counter. Nonspecific binding was measured in the presence of 10 μM of spiperone, and [^3H]-spiperone binding inhibition rate in the presence of 10 nM of test drug was determined. The larger binding inhibition rate (%) means that test drug has the higher binding affinity for human D2L receptor.

human 5-HT2A receptor = biological target: T1, human 5-HT2A receptor (Homo sapiens, UniProt P28223); assay: Serotonin 5-HT2A receptor binding assay ([3H]-ketanserin); conditions: [3H]-ketanserin 1 nM, human 5-HT2A receptor-expressing CHO cell membrane; for inhibition at 0.01 µM: 10 nM test drug, read-out: BINDING INHIBITION RATE (%) 5HT2A 10 nM
T1 construct: expressed in transfected cells; host or cells: CHO cells (membrane preparation)
T1 sequence (P28223 whole entry): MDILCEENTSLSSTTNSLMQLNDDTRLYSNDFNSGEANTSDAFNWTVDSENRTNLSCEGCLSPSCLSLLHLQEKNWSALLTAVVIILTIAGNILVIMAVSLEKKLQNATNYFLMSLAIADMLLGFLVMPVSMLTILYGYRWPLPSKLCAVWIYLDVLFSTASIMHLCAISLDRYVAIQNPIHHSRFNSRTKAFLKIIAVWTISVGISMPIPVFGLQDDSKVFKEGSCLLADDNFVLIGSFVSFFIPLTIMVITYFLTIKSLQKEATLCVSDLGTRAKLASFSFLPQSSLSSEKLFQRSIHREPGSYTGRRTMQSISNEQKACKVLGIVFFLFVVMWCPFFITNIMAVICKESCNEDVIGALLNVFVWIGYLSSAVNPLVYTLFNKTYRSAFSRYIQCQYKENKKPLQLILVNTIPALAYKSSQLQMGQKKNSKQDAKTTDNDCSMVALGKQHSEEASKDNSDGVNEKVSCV
Method: (2) Serotonin 5-HT2A Receptor Binding Assay
5-HT2A receptor binding assay was performed in reference to a method described by Hirose et al. (Japan. J. Pharmacol., 53, 321-329, 1990). After a reaction in a total volume of 200 μL of 50 mM Tris-HCl (pH=7.6) buffer solution containing 50 μL of [^3H]-ketanserin (final concentration 1 nM), 1 μL of test drug in DMSO, and 149 μL of human 5-HT2A receptor-expressing CHO cell membrane sample, human 5-HT2A receptor binding activity of [^3H]-ketanserin was measured. The reaction solution let stand for 15 minutes at 37° C., and then it was quickly added on a glass fiber filter plate (Multiscreen FB, Millipore inc.) coated with 0.05% Brij 35 and filtered under reduced pressure. The glass fiber filter was washed with 200 μL of ice-cooled 50 mM Tris-HCl (pH=7.6) twice, repeatedly filtered under reduced pressure, and then transferred to a vial containing 4 mL of Ecoscint A (National Diagnostics inc.). The residual radioactivity on the glass fiber filter was measured by a liquid scintillation counter. Nonspecific binding was measured in the presence of 10 μM of MDL-100907, and [^3H]-ketanserin binding inhibition rate in the presence of 1 nM or 10 nM of test drug was determined.

human 5-HT6 receptor = biological target: T2, human 5-HT6 receptor (Homo sapiens, UniProt P50406); assay: Serotonin 5-HT6 receptor binding assay ([3H]-clozapine); conditions: 100 nM test drug, [3H]-clozapine 2 nM, human 5-HT6 receptor-expressing CHO cell membrane; for inhibition at 0.1 µM: read-out: BINDING INHIBITION RATE (%) 5HT6 100 nM
T2 construct: expressed in transfected cells; host or cells: CHO cells (membrane preparation)
T2 sequence (P50406 whole entry): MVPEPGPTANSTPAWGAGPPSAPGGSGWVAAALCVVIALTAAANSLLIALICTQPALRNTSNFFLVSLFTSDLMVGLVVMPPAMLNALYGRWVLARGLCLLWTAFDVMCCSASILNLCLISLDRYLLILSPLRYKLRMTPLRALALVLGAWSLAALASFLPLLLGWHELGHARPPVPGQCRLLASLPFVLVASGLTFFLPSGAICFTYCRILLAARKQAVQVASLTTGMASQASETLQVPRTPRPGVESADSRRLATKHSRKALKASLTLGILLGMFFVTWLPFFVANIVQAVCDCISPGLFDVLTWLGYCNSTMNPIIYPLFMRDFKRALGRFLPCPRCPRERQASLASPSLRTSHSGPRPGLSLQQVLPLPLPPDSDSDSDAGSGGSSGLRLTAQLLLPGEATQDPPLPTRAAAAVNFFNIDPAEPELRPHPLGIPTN
Method: (3) Serotonin 5-HT6 Receptor Binding Assay
After a reaction in a total volume of 200 μL of 50 mM Tris-HCl (pH=7.6), 4 mM CaCl2, and 0.5 mM EDTA buffer solution containing 50 μL of [^3H]-clozapine (final concentration 2 nM), 1 μL of test drug in DMSO, and 149 μL of human 5-HT6 receptor-expressing CHO cell membrane sample, human 5-HT6 receptor binding activity of [^3H]-clozapine was measured. The reaction solution let stand for 40 minutes at room temperature, and then it was quickly added on a glass fiber filter plate (Multiscreen FB, Millipore inc.) coated with 0.3% polyethyleneimine (PEI) and filtered under reduced pressure. The glass fiber filter was washed with 200 μL of ice-cooled 50 mM Tris-HCl (pH=7.6) twice, repeatedly filtered under reduced pressure, and then transferred to a vial containing 4 mL of Ecoscint A (National Diagnostics inc.). The residual radioactivity on the glass fiber filter was measured by a liquid scintillation counter. Nonspecific binding was measured in the presence of 10 μM of SB-258585, and [^3H]-clozapine binding inhibition rate in the presence of 100 nM of test drug was determined.

human α1D receptor = biological target: T3, human α1D receptor (Homo sapiens, UniProt P25100); assay: Adrenaline α1D receptor binding assay ([3H]-prazosin); conditions: 100 nM test drug, [3H]-prazosin 0.6 nM, human α1D receptor-expressing CHO cell membrane; for inhibition at 0.1 µM: read-out: BINDING INHIBITION RATE (%) α1D 100 nM
T3 construct: expressed in transfected cells; host or cells: CHO cells (membrane preparation)
T3 sequence (P25100 1-572): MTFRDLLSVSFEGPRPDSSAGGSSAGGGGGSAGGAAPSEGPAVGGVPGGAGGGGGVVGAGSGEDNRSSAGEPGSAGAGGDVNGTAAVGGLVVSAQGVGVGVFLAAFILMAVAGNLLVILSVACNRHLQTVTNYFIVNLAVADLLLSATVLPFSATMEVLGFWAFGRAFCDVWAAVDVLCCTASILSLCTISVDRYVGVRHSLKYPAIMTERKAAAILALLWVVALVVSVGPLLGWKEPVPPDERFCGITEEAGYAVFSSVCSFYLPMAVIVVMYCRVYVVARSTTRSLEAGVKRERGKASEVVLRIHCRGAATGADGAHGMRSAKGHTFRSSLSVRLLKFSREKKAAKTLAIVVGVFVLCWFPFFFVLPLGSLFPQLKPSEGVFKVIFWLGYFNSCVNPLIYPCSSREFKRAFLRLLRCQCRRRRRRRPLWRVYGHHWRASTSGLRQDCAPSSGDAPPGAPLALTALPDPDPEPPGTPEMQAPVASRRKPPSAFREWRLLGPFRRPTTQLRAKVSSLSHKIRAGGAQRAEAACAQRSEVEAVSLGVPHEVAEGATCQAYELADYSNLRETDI
Method: (4) Adrenaline α1D Receptor Binding Assay
After a reaction in a total volume of 200 μL of 50 mM Tris-HCl (pH=7.6) buffer solution containing 50 μL of [^3H]-prazosin (final concentration 0.6 nM), 1 μL of test drug in DMSO, and 149 μL of human α1D receptor-expressing CHO cell membrane sample, human α1D receptor binding activity of [^3H]-prazosin was measured. The reaction solution let stand for 30 minutes at room temperature, and then it was quickly added on a glass fiber filter plate (Multiscreen FB, Millipore inc.) coated with 0.3% polyethyleneimine (PEI) and filtered under reduced pressure. The glass fiber filter was washed with 200 μL of ice-cooled 50 mM Tris-HCl (pH=7.6) twice, repeatedly filtered under reduced pressure, and then transferred to a vial containing 4 mL of Ecoscint A (National Diagnostics inc.). The residual radioactivity on the glass fiber filter was measured by a liquid scintillation counter. Nonspecific binding was measured in the presence of 1 μM of prazosin, and [^3H]-prazosin binding inhibition rate in the presence of 100 nM of test drug was determined.

Compound	inhibition at 0.01 µM (human D2L receptor) [%]	inhibition at 0.1 µM (human 5-HT6 receptor) [%]	inhibition at 0.1 µM (human α1D receptor) [%]	inhibition at 0.001 µM (human 5-HT2A receptor; 1 nM test drug, read-out: BINDING INHIBITION RATE (%) 5HT2A 1 nM) [%]	inhibition at 0.01 µM (human 5-HT2A receptor) [%]	BINDING INHIBITION RATE (%) D2L 10 nM (human D2L receptor) [%]	BINDING INHIBITION RATE (%) 5HT6 100 nM (human 5-HT6 receptor) [%]	BINDING INHIBITION RATE (%) α1D 100 nM (human α1D receptor) [%]
Cc1ccc2cc(C(=O)N3CCC[C@H]3CCN3CCC(C(=O)c4ccc(F)cc4)CC3)[nH]c2c1 [Example 1, (S)-(2-(2-(4-(4-Fluorobenzoyl)piperidin-1-yl)ethyl)pyrrolidin-1-yl)(6-methyl-1H-indol-2-yl)methanone]	91	96	68	73	–	–	–	–
O=C(/C=C/c1ccc2c(c1)OCO2)N1CCC[C@H](CCN2CCC(c3noc4cc(F)ccc34)CC2)C1 [Example 14]	75	92	89	–	–	–	–	–
O=C(c1cc2ccc(F)cc2[nH]1)N1CCC[C@H](CN2CCN(c3n[nH]c4ccccc34)CC2)C1 [Example 22]	26	85	–	–	–	–	–	–
Cc1ccc2cc(C(=O)N3CCC[C@H]3CCN3CCN(c4n[nH]c5cc(F)ccc45)CC3)[nH]c2c1 [Example 24]	88	98	64	–	–	–	–	–
COc1ccc2[nH]c(C(=O)N3CCCC[C@H]3CCN3CCC(c4coc5cc(F)ccc45)CC3)cc2c1 [Example 30]	92	65	–	–	95	–	–	–
CCOCCO[C@@H]1C[C@@H](CCN2CCC(c3c[nH]c4ccccc34)CC2)N(C(=O)c2cc3ccc(OC)cc3[nH]2)C1 [Example 37]	0	78	–	–	91	–	–	–
O=C(c1cccc(-c2ccccc2)c1)N1CCC[C@@H](CCN2CCN(c3nsc4ccccc34)CC2)C1 [Example 57]	69	86	76	–	–	–	–	–
(S)-(2-(2-(4-(6-Fluorobenzo[d]isoxazol-3-yl)piperidin-1-yl)ethyl)pyrrolidin-1-yl)(3-phenyl-1H-pyrazol-5-yl)methanone hydrochloride [Example 170]	–	–	–	–	–	87	95	83

Second part, led by results:

inhibition at 0.01 µM (human D2L receptor) [%]	inhibition at 0.1 µM (human 5-HT6 receptor) [%]	inhibition at 0.1 µM (human α1D receptor) [%]	Compound	inhibition at 0.001 µM (human 5-HT2A receptor; 1 nM test drug, read-out: BINDING INHIBITION RATE (%) 5HT2A 1 nM) [%]	inhibition at 0.01 µM (human 5-HT2A receptor) [%]	BINDING INHIBITION RATE (%) D2L 10 nM (human D2L receptor) [%]	BINDING INHIBITION RATE (%) 5HT6 100 nM (human 5-HT6 receptor) [%]	BINDING INHIBITION RATE (%) α1D 100 nM (human α1D receptor) [%]
28	82	–	Cc1ccc2cc(C(=O)N3CCC[C@H]3CCN3CCN(c4n[nH]c5ccc(F)cc45)CC3)[nH]c2c1 [Example 25]	–	–	–	–	–
85	78	81	O=C(c1cc2cc(O)ccc2[nH]1)N1CCOC[C@H]1CCN1CCC(c2c[nH]c3ccccc23)CC1 [Example 41]	–	–	–	–	–
72	94	85	O=C(c1ccc(F)cc1)C1CCN(CC[C@@H]2CCCN2C(=O)c2[nH]c3ccccc3c2-c2ccccc2)CC1 [Example 47]	–	–	–	–	–
82	97	40	O=C(c1ccc(F)cc1)C1CCN(CC[C@@H]2CCCN2C(=O)c2cc3ccccc3n2C2CCOCC2)CC1 [Example 48]	–	–	–	–	–
83	75	30	O=C(c1ccc(F)cc1)C1CCN(CC[C@@H]2CCCN2C(=O)c2cc3ccccc3n2-c2ccncc2)CC1 [Example 49]	–	–	–	–	–
89	94	48	Cc1ccc2cc(C(=O)N3C[C@H](F)C[C@H]3CCN3CCC(C(=O)c4ccc(F)cc4)CC3)[nH]c2c1 [Example 53]	–	–	–	–	–
83	100	–	N#CCCc1ccc2c(Cl)c(C(=O)N3CCC[C@H]3CCN3CCC(C(=O)c4ccc(F)cc4)CC3)[nH]c2c1 [Example 55]	–	–	–	–	–
0	17	–	CC(=O)Nc1cccc2cc(C(=O)N3CCC[C@H]3CCN3CCC(C(=O)c4ccc(F)cc4)CC3)n(C)c12 [Example 63]	–	–	–	–	–
88	97	62	Cc1ccc2cc(C(=O)N3[C@H](CCN4CCC(C(=O)c5ccc(F)cc5)CC4)CC[C@@H]3C)[nH]c2c1 [Example 166, ((2S,5S)-2-(2-(4-(4-Fluorobenzoyl)piperidin-1-yl)ethyl)-5-methylpyrrolidin-1-yl)(6-methyl-1H-indol-2-yl)methanone]	–	–	–	–	–
75	95	33	C[C@H]1CC[C@@H](CCN2CCC(C(=O)c3ccc(F)cc3)CC2)N1C(=O)c1cc2ccc(C(F)(F)F)cc2[nH]1 [Example 167, ((2S,5S)-2-(2-(4-(4-Fluorobenzoyl)piperidin-1-yl)ethyl)-5-methylpyrrolidin-1-yl)(6-(trifluoromethyl)-1H-indol-2-yl)methanone]	–	–	–	–	–
81	94	61	C[C@H]1CC[C@@H](CCN2CCC(C(=O)c3ccc(F)cc3)CC2)N1C(=O)c1cc2ccc(SC(F)(F)F)cc2[nH]1 [Example 168, ((2S,5S)-2-(2-(4-(4-Fluorobenzoyl)piperidin-1-yl)ethyl)-5-methylpyrrolidin-1-yl)(6-(trifluoromethylthio)-1H-indol-2-yl)methanone]	–	–	–	–	–
